From publication PMC6691788, “Design and synthesis of phthalazine-based compounds as potent anticancer agents with potential antiangiogenic activity via VEGFR-2 inhibition” (Journal of Enzyme Inhibition and Medicinal Chemistry, 2019)

Experiments:
Assay in all cases: NCI 60 cell panel SRB screen
Assay type in all cases: cell-based
A549/ATCC = settings: Homo sapiens; for GI50 / IC (TGI) / LC50 (concentration killing 50% of cells): 5 log dose; for LC50 (concentration killing 50% of cells): 48 h; for activity at 10 µM: single dose 10 μM, read-out: percent cell growth promotion
SF-295 = settings: Homo sapiens; for GI50 / IC (TGI) / CC50: SF-295, 5 log dose; for CC50: 48 h, read-out: LC50 (the source's name); for activity at 10 µM: SF-295, single dose 10 μM, read-out: percent cell growth promotion
MALME-3M = settings: Homo sapiens; for GI50 / IC (TGI) / activity at 10 µM: Malme-3M; for IC (TGI): read-out: TGI; for activity at 10 µM: read-out: percent cell growth promotion; for CC50: MALME-3M, 5 log dose, 48 h, read-out: LC50 (the source's name)
M14 = settings: Homo sapiens; for GI50: M14; for IC (TGI): M14, read-out: TGI; for activity at 10 µM: M14, read-out: percent cell growth promotion; for CC50: M14, 5 log dose, 48 h, read-out: LC50 (the source's name)
SK-MEL-5 = settings: Homo sapiens; for GI50: SK-MEL-5; for IC (TGI): SK-MEL-5, read-out: TGI; for activity at 10 µM: SK-MEL-5, read-out: percent cell growth promotion; for CC50: SK-MEL-5, 5 log dose, 48 h, read-out: LC50 (the source's name)
OVCAR-3 = settings: Homo sapiens; for GI50 / IC (TGI) / CC50: OVCAR-3, 5 log dose; for CC50: 48 h, read-out: LC50 (the source's name); for activity at 10 µM: OVCAR-3, single dose 10 μM, read-out: percent cell growth promotion
PC-3 = settings: Homo sapiens; for GI50 / IC (TGI) / CC50: PC-3, 5 log dose; for CC50: 48 h, read-out: LC50 (the source's name); for activity at 10 µM: PC-3, single dose 10 μM, read-out: percent cell growth promotion
MDA-MB-468 = settings: Homo sapiens; for activity at 10 µM: MDA-MB-468, MDA-MBA-468, single dose 10 μM, read-out: percent cell growth promotion; for GI50 / IC (TGI) / CC50: MDA-MB-468, 5 log dose; for CC50: 48 h, read-out: LC50 (the source's name)
Description: The human tumor cell lines of the cancer-screening panel were grown in RPMI 1640 medium containing 5% fetal bovine serum and […] L-glutamine. For a typical screening experiment, cells are inoculated into 96 well microtiter plates in 100 ml at plating densities ranging from 5000 to 40,000 cells/well depending on the doubling time of individual cell lines. After cell inoculation, the microtiter plates are incubated at 37 °C, 5% CO2, 95% air and 100%
relative humidity for 24 h prior to addition of experimental drugs. After 24 h, two plates of each cell line are fixed in situ with TCA, to represent a measurement of the cell population for each cell line at the time of drug addition (Tz). Experimental drugs are dissolved in dimethyl sulfoxide at 400-fold the desired final maximum test concentration and stored frozen prior to use. At the time of drug addition, an aliquot of frozen concentrate is thawed and diluted to twice the desired final maximum test concentration with complete medium containing […] Gentamicin. Additional four, 10-fold or ½log serial dilutions are made to provide a total of five drug concentrations plus control. Aliquots of […] of these different drug dilutions are added to the appropriate microtiter wells already containing 100 ml of medium, resulting in the required final drug concentrations. Following drug addition, the plates are incubated for an additional 48 h at 37 °C, 5% CO2, 95% air, and 100% relative humidity. For adherent cells, the assay is terminated by the addition of cold TCA. Cells are fixed in situ by the gentle addition of […] of cold 50% (w/v) TCA (final concentration,10% TCA) and incubated for 60 min at 4 °C. The supernatant is discarded, and the plates are washed five times with tap water and air dried. Sulforhodamine B (SRB) solution (100 ml) at 0.4% (w/v) in 1% acetic acid is added to each well, and plates are incubated for 10 min at room temperature. After staining, unbound dye is removed by washing five times with 1% acetic acid and the plates are air dried. Bound stain is subsequently dissolved with 10 μM trizma base, and the absorbance is read on an automated plate reader at a wavelength of 515 nm. For suspension cells, the methodology is the same except that the assay is terminated by fixing settled cells at the bottom of the wells by gently adding […] of 80% TCA (final concentration, 16% TCA).
Using the seven absorbance measurements [time zero, (Tz), control growth, (C), and test growth in the presence of drug at the five concentration levels (Ti)], the percentage growth is calculated at each of the drug concentrations levels. Percentage growth inhibition is calculated as: [(Ti -Tz)/(C - Tz)] x 100 for concentrations for which Ti>/ ¼ Tz and [(Ti -Tz) / Tz] x100 for concentrations for which Ti <Tz.
Three dose response parameters are calculated for each experimental agent. Growth inhibition of 50% (GI50) is calculated from [(Ti -Tz)/(C - Tz)] x 100 =50, which is the drug concentration resulting in a 50% reduction in the net protein increase (as measured by SRB staining) in control cells during the drug incubation. The drug concentration resulting in total growth inhibition (TGI) is calculated from Ti ¼ Tz. The LC50 (concentration of drug resulting in a 50% reduction in the measured protein at the end of the drug treatment as compared to that at the beginning) indicating a net loss of cells following treatment is calculated from [(Ti - Tz) / Tz] x100 = -50. Values are calculated for each of these three parameters if the level of activity is reached; however, if the effect is not reached or is exceeded, the value for that parameter is expressed as greater or less than the maximum or minimum concentration tested.

| SMILES | GI50 (A549/ATCC) [µM] | IC (TGI) (A549/ATCC) [µM] | LC50 (concentration killing 50% of cells) (A549/ATCC) [µM] | activity at 10 µM (A549/ATCC) [%] | GI50 (SF-295) [µM] | IC (TGI) (SF-295) [µM] | CC50 (SF-295) [µM] | activity at 10 µM (SF-295) [%] | GI50 (MALME-3M) [µM] | IC (TGI) (MALME-3M) [µM] | activity at 10 µM (MALME-3M) [%] | CC50 (MALME-3M) [µM] | GI50 (M14) [µM] | IC (TGI) (M14) [µM] | activity at 10 µM (M14) [%] | CC50 (M14) [µM] | GI50 (SK-MEL-5) [µM] | IC (TGI) (SK-MEL-5) [µM] | activity at 10 µM (SK-MEL-5) [%] | CC50 (SK-MEL-5) [µM] | also measured |
| --- | --- | --- | --- | --- | --- | --- | --- | --- | --- | --- | --- | --- | --- | --- | --- | --- | --- | --- | --- | --- | --- |
| Clc1ccc(Nc2nnc(CNc3ccccc3)c3ccccc23)cc1 [Compound 16a, N-(4-Chlorophenyl)-4-((phenylamino)methyl)phthalazin-1-amine] | 3.17 | 20 | > 25 | 20.3 | 2.98 | 8.77 | > 25 | 14.3 | 2.66 | 9.92 | -13.8 | > 25 | 1.74 | 6.65 | 5.8 | 20.6 | 2.08 | 5.27 | -69.1 | 11.8 | GI50 (OVCAR-3): 3.51 µM; IC (TGI) (OVCAR-3): 8.69 µM; CC50 (OVCAR-3): 21.5 µM; activity at 10 µM (OVCAR-3): -1.64%; GI50 (PC-3): 14.4 µM; IC (TGI) (PC-3): 14.4 µM; CC50 (PC-3): > 25 µM; activity at 10 µM (PC-3): 7.15%; activity at 10 µM (MDA-MB-468): -16.4%; GI50 (MDA-MB-468): 1.9 µM; IC (TGI) (MDA-MB-468): 11.5 µM; CC50 (MDA-MB-468): > 25 µM |
| COc1cccc(NCc2nnc(Nc3ccc(Cl)cc3)c3ccccc23)c1 [Compound 16d, N-(4-Chlorophenyl)-4-((3-methoxyphenylamino)methyl)phthalazin-1-amine] | 1.93 | 9.42 | > 25 | 2.56 | 1.94 | 8.24 | > 25 | -22.6 | 1.22 | 6.23 | -22 | 17.3 | 0.85 | 4.69 | -15.7 | 12.9 | 0.81 | 4.18 | -98.5 | 10.2 | GI50 (OVCAR-3): 1.64 µM; IC (TGI) (OVCAR-3): 10 µM; CC50 (OVCAR-3): > 25 µM; activity at 10 µM (OVCAR-3): -53.6%; GI50 (PC-3): 1.19 µM; IC (TGI) (PC-3): 9.33 µM; CC50 (PC-3): > 25 µM; activity at 10 µM (PC-3): -13.6%; activity at 10 µM (MDA-MB-468): -21.9%; GI50 (MDA-MB-468): 1.05 µM; IC (TGI) (MDA-MB-468): 4.73 µM; CC50 (MDA-MB-468): 19.5 µM |
| Clc1ccc(Nc2nnc(COc3ccccc3)c3ccccc23)cc1 [Compound 17a, N-(4-Chlorophenyl)-4-(phenoxymethyl)phthalazin-1-amine] | 2.87 | 12.3 | > 25 | 4.64 | 1.65 | 6.7 | 20.5 | -1.11 | 1.38 | 7.3 | -13.5 | 25 | 0.91 | 5.03 | -9.99 | 15.2 | 1.08 | 4.56 | -96.1 | 10.8 | GI50 (OVCAR-3): 2.87 µM; IC (TGI) (OVCAR-3): 9.8 µM; CC50 (OVCAR-3): > 25 µM; activity at 10 µM (OVCAR-3): -35.1%; GI50 (PC-3): 1.3 µM; IC (TGI) (PC-3): 10.1 µM; CC50 (PC-3): > 25 µM; activity at 10 µM (PC-3): -0.2%; activity at 10 µM (MDA-MB-468): -16.9%; GI50 (MDA-MB-468): 1.49 µM; IC (TGI) (MDA-MB-468): 7.62 µM; CC50 (MDA-MB-468): > 25 µM |
